# Measured values: patent US11299490B2, “Benzenesulfonamide compounds and their use as therapeutic agents” (Xenon Pharmaceuticals Inc., priority 2016, dated 2022)
# Legend:
# NaV1.1 = NaV1.1 (Homo sapiens (Human), UniProt P35498); test: Sodium Influx Assay (Flux), NaV1.1; type: cell-based; conditions: Trex HEK293 cells, ANG2 dye; arithmetic mean
# Text: Sodium Influx Assay (In Vitro Assay)
# NaV1.5 [1] = target: T1, NaV1.5 (Homo sapiens (Human), UniProt Q14524); test: cell-based
# NaV1.6 = NaV1.6 (Homo sapiens (Human), UniProt Q9UQD0); test: Sodium Influx Assay (Flux), NaV1.6
# NaV1.5 [2] = target: T1, NaV1.5; test: Electrophysiological Assay (EP, patch voltage clamp), NaV1.5; type: cell-based; conditions: HEK-293 cells, whole-cell patch clamp, inactivated state; arithmetic mean
# Experimental: Sodium currents were measured using the patch clamp technique in the whole-cell configuration using either a PatchXpress automated voltage clamp or manually using an Axopatch 200B (Axon Instruments) or Model 2400 (A-M systems) amplifier. […] In some studies, the external sodium was reduced by equimolar replacement with choline. […] All recordings were performed at ambient temperature in a bath chamber with a volume of 150 μL. Control sodium currents were measured in 0.5% DMSO. Controls and representative compounds of the invention were applied to the recording chamber through a 4-pinch or 8-pinch valve bath perfusion system manufactured by ALA Scientific Instruments.
# Series resistance compensation was applied (60-80%). […] All statistics in this study are given as mean±SD.
# The membrane potential was maintained at a voltage where inactivation of the channel is complete. The voltage is then stepped back to a very negative (Vhold=−150 mV) voltage for 20 ms and then a test pulse is applied to quantify the compound block. […] The percent decrease in sodium current following wash-on of compound was taken as the percent block of sodium channels.
# T1 sequence (Q14524 other isoform, or with tags, fused parts or gaps): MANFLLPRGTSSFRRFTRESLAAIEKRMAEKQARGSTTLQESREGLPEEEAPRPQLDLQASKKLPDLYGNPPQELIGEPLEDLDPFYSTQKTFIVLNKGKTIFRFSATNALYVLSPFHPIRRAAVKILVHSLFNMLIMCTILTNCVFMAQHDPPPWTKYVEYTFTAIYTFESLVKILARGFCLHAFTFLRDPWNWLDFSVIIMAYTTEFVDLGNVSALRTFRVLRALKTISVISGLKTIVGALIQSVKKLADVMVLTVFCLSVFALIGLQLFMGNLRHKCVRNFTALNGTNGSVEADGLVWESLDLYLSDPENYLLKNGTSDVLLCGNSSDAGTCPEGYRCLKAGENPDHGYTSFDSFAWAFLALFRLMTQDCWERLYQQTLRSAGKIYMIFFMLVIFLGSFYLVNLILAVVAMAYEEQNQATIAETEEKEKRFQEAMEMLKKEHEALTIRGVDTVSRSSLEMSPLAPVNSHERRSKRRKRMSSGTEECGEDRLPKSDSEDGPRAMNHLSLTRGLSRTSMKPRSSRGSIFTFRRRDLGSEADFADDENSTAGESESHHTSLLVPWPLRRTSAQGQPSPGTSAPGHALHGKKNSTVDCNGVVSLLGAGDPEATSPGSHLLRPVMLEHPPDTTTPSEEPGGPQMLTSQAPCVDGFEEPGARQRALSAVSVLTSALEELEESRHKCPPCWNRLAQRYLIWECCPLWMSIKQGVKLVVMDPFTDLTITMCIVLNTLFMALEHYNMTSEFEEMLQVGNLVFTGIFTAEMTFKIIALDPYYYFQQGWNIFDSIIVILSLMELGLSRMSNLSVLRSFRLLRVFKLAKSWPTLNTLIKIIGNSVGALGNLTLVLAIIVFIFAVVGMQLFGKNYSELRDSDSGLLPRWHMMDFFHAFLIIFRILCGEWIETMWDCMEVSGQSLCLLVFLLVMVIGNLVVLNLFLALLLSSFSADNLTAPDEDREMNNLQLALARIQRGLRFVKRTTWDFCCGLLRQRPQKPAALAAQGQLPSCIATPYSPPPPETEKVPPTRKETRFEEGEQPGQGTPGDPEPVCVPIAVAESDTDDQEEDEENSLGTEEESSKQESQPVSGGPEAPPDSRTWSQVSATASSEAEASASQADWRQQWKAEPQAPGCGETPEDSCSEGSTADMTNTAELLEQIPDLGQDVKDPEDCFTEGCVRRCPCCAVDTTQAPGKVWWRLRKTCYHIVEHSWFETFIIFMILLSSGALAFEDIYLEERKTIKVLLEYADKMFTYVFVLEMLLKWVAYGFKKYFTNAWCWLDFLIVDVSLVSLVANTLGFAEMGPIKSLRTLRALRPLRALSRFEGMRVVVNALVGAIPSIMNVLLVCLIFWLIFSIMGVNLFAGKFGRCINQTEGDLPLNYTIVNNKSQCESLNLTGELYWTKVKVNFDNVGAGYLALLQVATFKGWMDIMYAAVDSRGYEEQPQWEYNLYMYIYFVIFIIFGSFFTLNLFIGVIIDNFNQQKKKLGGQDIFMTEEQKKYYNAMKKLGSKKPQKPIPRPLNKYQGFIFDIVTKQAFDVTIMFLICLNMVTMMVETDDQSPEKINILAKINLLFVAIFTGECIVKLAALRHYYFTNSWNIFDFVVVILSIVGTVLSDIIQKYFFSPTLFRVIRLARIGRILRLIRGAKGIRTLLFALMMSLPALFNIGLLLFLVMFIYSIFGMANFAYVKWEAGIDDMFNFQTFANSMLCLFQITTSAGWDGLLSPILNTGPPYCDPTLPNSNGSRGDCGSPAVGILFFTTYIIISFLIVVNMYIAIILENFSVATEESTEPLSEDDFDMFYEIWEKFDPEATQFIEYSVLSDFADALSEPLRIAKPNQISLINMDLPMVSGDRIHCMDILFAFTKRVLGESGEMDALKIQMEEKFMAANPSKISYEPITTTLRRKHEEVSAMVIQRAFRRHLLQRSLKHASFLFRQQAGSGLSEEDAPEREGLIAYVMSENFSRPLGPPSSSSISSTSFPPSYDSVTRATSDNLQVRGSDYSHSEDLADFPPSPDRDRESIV
IC50 (NaV1.1),IC50 (NaV1.6),SMILES,IC50 (NaV1.5 [1]),IC50 (NaV1.5 [2])
8.44 µM,6.86 µM,"C[C@@H]1[C@H](N(C)c2cc(F)c(S(=O)(=O)Nc3cscn3)cc2Cl)CCN1Cc1ccccc1 (racemic) [Example 309, rac-4-(((2R,3R)-1-benzyl-2-methylpyrrolidin-3-yl)(methyl)amino)-5-chloro-2-fluoro-N-(thiazol-4-yl)benzenesulfonamide]",7.35 µM,
,,"Cc1c(N(C)[C@H]2CCN(Cc3ccccc3)C2)cc(F)c(S(=O)(=O)Nc2cscn2)c1F [Example 103, (S)-4-((1-benzylpyrrolidin-3-yl)(methyl)amino)-2,6-difluoro-3-methyl-N-(thiazol-4-yl)benzenesulfonamide 2,2,2-trifluoroacetate]",,> 30 µM
